Test results from patent US11485742B2, “2-azaspiro[3.4]octane derivatives as M4 agonists” (NOVARTIS AG, priority 2019, dated 2022).

Tests used:
[1] = molecular target: T1, human cloned CHRM3 receptor (Homo sapiens, UniProt P20309); assay: CHRM3 Ca++ Flux Assay (M3_CHO cells, agonist mode); format: cell-based; settings: for Emax: Percent Activity (PA) measured to EC100 of Carbachol, read-out: M3 FDSS PA %; for EC50: agonist mode, geometric mean if tested more than once, read-out: M3 FDSS EC50
T1 construct: expressed in transfected cells; host or cells: CHO-K1 (M3_CHO)
Outline: (§1)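 CHO-K1 cells stably expressing human M3 or M5 receptor, dye-loaded ≥1 h, treated with 11-point compound doses in triplicate; Ca++ flux read over 3 min (FDSS). Agonist-mode four-parameter fit; percent activity relative to carbachol EC100; repeat tests reported as geometric mean.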

[2] = molecular target: T2, human cloned CHRM5 receptor (Homo sapiens, UniProt P08912); assay: CHRM5 Ca++ Flux Assay (M5_CHO cells, agonist mode); format: cell-based; settings: for Emax: Percent Activity (PA) measured to EC100 of Carbachol, read-out: M5 FDSS PA %; for EC50: agonist mode, geometric mean if tested more than once, read-out: M5 FDSS EC50
T2 construct: expressed in transfected cells; host or cells: CHO (M5_CHO)
T2 sequence (P08912 1-532): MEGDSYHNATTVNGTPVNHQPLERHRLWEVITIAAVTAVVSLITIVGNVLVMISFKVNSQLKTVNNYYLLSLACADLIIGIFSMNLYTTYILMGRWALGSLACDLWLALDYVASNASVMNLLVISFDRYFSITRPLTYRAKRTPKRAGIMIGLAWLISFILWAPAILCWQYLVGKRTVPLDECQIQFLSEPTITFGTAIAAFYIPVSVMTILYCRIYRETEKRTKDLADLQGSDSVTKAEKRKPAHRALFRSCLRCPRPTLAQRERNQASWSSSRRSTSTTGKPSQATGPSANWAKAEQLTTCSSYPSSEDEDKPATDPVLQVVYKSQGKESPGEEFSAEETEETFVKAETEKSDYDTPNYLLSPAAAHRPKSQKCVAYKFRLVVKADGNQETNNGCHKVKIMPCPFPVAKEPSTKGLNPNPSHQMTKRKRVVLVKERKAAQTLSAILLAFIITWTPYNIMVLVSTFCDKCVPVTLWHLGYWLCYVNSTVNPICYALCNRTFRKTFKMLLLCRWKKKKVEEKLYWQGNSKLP
Outline: as §1

T1 sequence (P20309 whole entry): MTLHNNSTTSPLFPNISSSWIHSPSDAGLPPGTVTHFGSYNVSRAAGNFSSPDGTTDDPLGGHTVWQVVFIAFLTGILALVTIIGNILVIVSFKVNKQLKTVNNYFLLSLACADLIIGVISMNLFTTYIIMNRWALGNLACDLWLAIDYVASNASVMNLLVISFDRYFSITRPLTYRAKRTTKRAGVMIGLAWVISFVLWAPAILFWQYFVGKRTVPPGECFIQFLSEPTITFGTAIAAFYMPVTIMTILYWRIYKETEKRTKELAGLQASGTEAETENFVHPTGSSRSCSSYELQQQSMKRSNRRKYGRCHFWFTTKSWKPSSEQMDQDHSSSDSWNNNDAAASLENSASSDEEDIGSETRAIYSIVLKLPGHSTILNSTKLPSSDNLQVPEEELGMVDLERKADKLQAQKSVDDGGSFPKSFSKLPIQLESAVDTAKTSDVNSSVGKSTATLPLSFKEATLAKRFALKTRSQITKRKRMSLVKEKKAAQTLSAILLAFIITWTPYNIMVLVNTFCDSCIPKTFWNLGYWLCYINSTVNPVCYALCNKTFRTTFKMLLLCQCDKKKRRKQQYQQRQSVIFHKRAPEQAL

| Structure (SMILES) | Emax [1] [%] | EC50 [1] [µM] | Emax [2] [%] | EC50 [2] [µM] |
| --- | --- | --- | --- | --- |
| COc1ccccc1C1CCN([C@@H]2COC3(C2)CN(c2nnco2)C3)CC1 [Example 1Q, (S)-7-(4-(2-methoxyphenyl)piperidin-1-yl)-2-(1,3,4-oxadiazol-2-yl)-5-oxa-2-azaspiro[3.4]octane] | 0 | > 25 | 0 | > 25 |
| Fc1ccc(OCC2COC2)c(C2CCN([C@@H]3COC4(C3)CN(c3nncs3)C4)CC2)c1 [Example 2A, (S)-7-(4-(5-fluoro-2-(oxetan-3-ylmethoxy)phenyl)piperidin-1-yl)-2-(1,3,4-thiadiazol-2-yl)-5-oxa-2-azaspiro[3.4]octane] | 0 | > 25 | 0 | > 25 |
| Fc1ccc(OCC2COC2)c(C2CCN([C@@H]3COC4(C3)CN(c3nnco3)C4)CC2)c1 [Example 2H, (S)-7-(4-(5-fluoro-2-(oxetan-3-ylmethoxy)phenyl)piperidin-1-yl)-2-(1,3,4-oxadiazol-2-yl)-5-oxa-2-azaspiro[3.4]octane] | 0 | > 25 | 0 | > 25 |
| Fc1ccc(OCC2CC3(COC3)C2)c(C2CCN([C@@H]3COC4(C3)CN(c3nnco3)C4)CC2)c1 [Example 2S, (S)-7-(4-(2-((2-oxaspiro[3.3]heptan-6-yl)methoxy)-5-fluorophenyl)piperidin-1-yl)-2-(1,3,4-oxadiazol-2-yl)-5-oxa-2-azaspiro[3.4]octane] | 0 | > 25 | 0 | > 25 |
| CC(C)(O)CCOc1ccc(F)cc1C1CCN([C@@H]2COC3(C2)CN(c2nnco2)C3)CC1 [Example 1N, (S)-4-(2-(1-(2-(1,3,4-oxadiazol-2-yl)-5-oxa-2-azaspiro[3.4]octan-7-yl)piperidin-4-yl)-4-fluorophenoxy)-2-methylbutan-2-ol] | 0 | > 25 | 0 | > 25 |
| OC1(COc2ccc(F)cc2C2CCN([C@@H]3COC4(C3)CN(c3nnco3)C4)CC2)COC1 [Example 2U, (S)-3-((2-(1-(2-(1,3,4-oxadiazol-2-yl)-5-oxa-2-azaspiro[3.4]octan-7-yl)piperidin-4-yl)-4-fluorophenoxy)methyl)oxetan-3-ol] | 0 | > 25 | 0 | > 25 |
| Cc1nnc(COc2ccc(F)cc2C2CCN([C@@H]3COC4(C3)CN(c3nnco3)C4)CC2)s1 [Example 2E, (S)-7-(4-(5-fluoro-2-((5-methyl-1,3,4-thiadiazol-2-yl)methoxy)phenyl)piperidin-1-yl)-2-(1,3,4-oxadiazol-2-yl)-5-oxa-2-azaspiro[3.4]octane] | 0 | > 25 | 23 | 1.67 |
| c1ccc(C2CCN([C@@H]3COC4(C3)CN(c3nnco3)C4)CC2)c(-c2ncco2)c1 [Example 1X, (S)-2-(1,3,4-oxadiazol-2-yl)-7-(4-(2-(oxazol-2-yl)phenyl)piperidin-1-yl)-5-oxa-2-azaspiro[3.4]octane] | 0 | > 25 | 0 | > 25 |
| Fc1ccc(OC2COCOC2)c(C2CCN([C@@H]3COC4(C3)CN(c3nnco3)C4)CC2)c1 [Example 1M, (S)-7-(4-(2-((1,3-dioxan-5-yl)oxy)-5-fluorophenyl)piperidin-1-yl)-2-(1,3,4-oxadiazol-2-yl)-5-oxa-2-azaspiro[3.4]octane] | 0 | > 25 | 0 | > 25 |
| Fc1ccc(OC2COC2)c(C2CCN([C@@H]3COC4(C3)CN(c3nnco3)C4)CC2)c1 [Example 1A, (S)-7-(4-(5-fluoro-2-(oxetan-3-yloxy)phenyl)piperidin-1-yl)-2-(1,3,4-oxadiazol-2-yl)-5-oxa-2-azaspiro[3.4]octane] | 0 | > 25 | 0 | > 25 |
| CCC1(COc2ccc(F)cc2C2CCN([C@@H]3COC4(C3)CN(c3nnco3)C4)CC2)COC1 [Example 2P, (S)-7-(4-(2-((3-ethyloxetan-3-yl)methoxy)-5-fluorophenyl)piperidin-1-yl)-2-(1,3,4-oxadiazol-2-yl)-5-oxa-2-azaspiro[3.4]octane] | 0 | > 25 | 0 | > 25 |
| CC1(COc2ccc(F)cc2C2CCN([C@@H]3COC4(C3)CN(c3nnco3)C4)CC2)COC1 [Example 2K, (S)-7-(4-(5-fluoro-2-((3-methyloxetan-3-yl)methoxy)phenyl)piperidin-1-yl)-2-(1,3,4-oxadiazol-2-yl)-5-oxa-2-azaspiro[3.4]octane] | 0 | > 25 | 0 | > 25 |
| Fc1ccc(OCC2(F)COC2)c(C2CCN([C@@H]3COC4(C3)CN(c3nnco3)C4)CC2)c1 [Example 2J, (S)-7-(4-(5-fluoro-2-((3-fluorooxetan-3-yl)methoxy)phenyl)piperidin-1-yl)-2-(1,3,4-oxadiazol-2-yl)-5-oxa-2-azaspiro[3.4]octane] | 0 | > 25 | 0 | > 25 |
| c1ccc(C2CCN([C@@H]3COC4(C3)CN(c3nnco3)C4)CC2)c(-c2cncnc2)c1 [Example 1W, (S)-2-(1,3,4-oxadiazol-2-yl)-7-(4-(2-(pyrimidin-5-yl)phenyl)piperidin-1-yl)-5-oxa-2-azaspiro[3.4]octane] | 0 | > 25 | 20 | 13.8 |
| CCc1nnc(COc2ccc(F)cc2C2CCN([C@@H]3COC4(C3)CN(c3nnco3)C4)CC2)s1 [Example 2T, (S)-7-(4-(2-((5-ethyl-1,3,4-thiadiazol-2-yl)methoxy)-5-fluorophenyl)piperidin-1-yl)-2-(1,3,4-oxadiazol-2-yl)-5-oxa-2-azaspiro[3.4]octane] | 0 | > 25 | 0 | 0.73 |
| CC(C)(O)COc1ccc(F)cc1C1CCN([C@@H]2COC3(C2)CN(c2nnco2)C3)CC1 [Example 1U, (S)-1-(2-(1-(2-(1,3,4-oxadiazol-2-yl)-5-oxa-2-azaspiro[3.4]octan-7-yl)piperidin-4-yl)-4-fluorophenoxy)-2-methylpropan-2-ol] | 0 | > 25 | 0 | > 25 |

Second part, the compound after the results:

| Emax [1] [%] | EC50 [1] [µM] | Emax [2] [%] | EC50 [2] [µM] | Structure (SMILES) |
| --- | --- | --- | --- | --- |
| 0 | > 25 | 0 | > 25 | CC(C)(O)COc1ccccc1C1CCN([C@@H]2COC3(C2)CN(c2ncns2)C3)CC1 [Example 5Y, (S)-1-(2-(1-(2-(1,2,4-thiadiazol-5-yl)-5-oxa-2-azaspiro[3.4]octan-7-yl)piperidin-4-yl)phenoxy)-2-methylpropan-2-ol] |
| 0 | > 25 | 0 | > 25 | Fc1ccc(OC2CC3(COC3)C2)c(C2CCN([C@@H]3COC4(C3)CN(c3ncon3)C4)CC2)c1 [Example 6C, (S)-7-(4-(2-((2-oxaspiro[3.3]heptan-6-yl)oxy)-5-fluorophenyl)piperidin-1-yl)-2-(1,2,4-oxadiazol-3-yl)-5-oxa-2-azaspiro[3.4]octane] |
| 0 | > 25 | 0 | > 25 | Fc1ccc(OC2COC2)c(C2CCN([C@@H]3COC4(C3)CN(c3ncon3)C4)CC2)c1 [Example 6B, (S)-7-(4-(5-fluoro-2-(oxetan-3-yloxy)phenyl)piperidin-1-yl)-2-(1,2,4-oxadiazol-3-yl)-5-oxa-2-azaspiro[3.4]octane] |
| 0 | > 25 | 0 | > 25 | Fc1ccc(OC2CC3(COC3)C2)c(C2CCN([C@H]3COC4(C3)CN(c3nnco3)C4)CC2)c1 [Example 7A, (R)-7-(4-(2-((2-oxaspiro[3.3]heptan-6-yl)oxy)-5-fluorophenyl)piperidin-1-yl)-2-(1,3,4-oxadiazol-2-yl)-5-oxa-2-azaspiro[3.4]octane] |
| 0 | > 25 | 0 | > 25 | Fc1ccc(OC2CCOCC2)c(C2CCN([C@@H]3COC4(C3)CN(c3ncon3)C4)CC2)c1 [Example 6A, (S)-7-(4-(5-fluoro-2-((tetrahydro-2H-pyran-4-yl)oxy)phenyl)piperidin-1-yl)-2-(1,2,4-oxadiazol-3-yl)-5-oxa-2-azaspiro[3.4]octane] |
| 0 | > 25 | 0 | > 25 | Fc1ccc(OC2CC3(COC3)C2)c(C2CCN([C@@H]3COC4(C3)CN(c3nncs3)C4)CC2)c1 [Example 5W, (S)-7-(4-(2-((2-oxaspiro[3.3]heptan-6-yl)oxy)-5-fluorophenyl)piperidin-1-yl)-2-(1,3,4-thiadiazol-2-yl)-5-oxa-2-azaspiro[3.4]octane] |
